Laboratory results published in article PMC7673538 (PLoS Biology, 2020).

system: HeLa R19 cells; test: not given; conditions: human

Row | Structure (SMILES) | CC50
1 | CC(C)c1ccc(CN(C(=O)c2ccco2)c2ccccc2)cc1 [Compound 19h, N-(4-Isopropylbenzyl)-N-phenylfuran-2-carboxamide] | 42.8 ± 1.75 µM

same assay, conditions: human, monkey

Row | Structure (SMILES) | cytotoxicity (in words)
2 | CC(C)c1ccc(CN(C(=O)c2ccco2)c2ccccc2)cc1 [Compound 19h, N-(4-Isopropylbenzyl)-N-phenylfuran-2-carboxamide] | cytotoxicity in a similar range as the parental compound 1

system: HRV-A2; test: microbe, parasite or virus in culture; format: cell-based, human rhinovirus; conditions: Human rhinovirus sp., HRVA2, HeLa R19, read-out: EC50 HRV-A2

Row | Structure (SMILES) | EC50
3 | CC(C)c1ccc(CN(C(=O)c2ccco2)c2ccccc2)cc1 [Compound 19h, N-(4-Isopropylbenzyl)-N-phenylfuran-2-carboxamide] | > 30 µM

system: not listed separately; test: in vitro; conditions: monkey, CC50

Row | Structure (SMILES) | CC50
4 | CC(C)c1ccc(CN(C(=O)c2ccco2)c2ccccc2)cc1 [Compound 19h, N-(4-Isopropylbenzyl)-N-phenylfuran-2-carboxamide] | 46.8 ± 1.48 µM

same assay, conditions: monkey, CC50 BGM Average

Row | Structure (SMILES) | CC50
5 | CC(C)c1ccc(CN(C(=O)c2ccco2)c2ccccc2)cc1 [Compound 19h, N-(4-Isopropylbenzyl)-N-phenylfuran-2-carboxamide] | 46.8 µM

same assay, conditions: monkey, Exp 1 CC50 BGM

Row | Structure (SMILES) | CC50
6 | CC(C)c1ccc(CN(C(=O)c2ccco2)c2ccccc2)cc1 [Compound 19h, N-(4-Isopropylbenzyl)-N-phenylfuran-2-carboxamide] | 45.4 µM

same assay, conditions: monkey, Exp 2 CC50 BGM

Row | Structure (SMILES) | CC50
7 | CC(C)c1ccc(CN(C(=O)c2ccco2)c2ccccc2)cc1 [Compound 19h, N-(4-Isopropylbenzyl)-N-phenylfuran-2-carboxamide] | 48.3 µM

system: CV-A24; test: microbe, parasite or virus in culture; format: cell-based, coxsackievirus A24; conditions: Enterovirus C, CVA24, HeLa R19, read-out: EC50 CV-A24

Row | Structure (SMILES) | EC50
8 | CC(C)c1ccc(CN(C(=O)c2ccco2)c2ccccc2)cc1 [Compound 19h, N-(4-Isopropylbenzyl)-N-phenylfuran-2-carboxamide] | > 30 µM

system: PV-1; test: microbe, parasite or virus in culture; format: cell-based, poliovirus 1; conditions: Enterovirus C, HeLa R19, read-out: EC50 PV-1

Row | Structure (SMILES) | EC50
9 | CC(C)c1ccc(CN(C(=O)c2ccco2)c2ccccc2)cc1 [Compound 19h, N-(4-Isopropylbenzyl)-N-phenylfuran-2-carboxamide] | > 30 µM

system: not listed separately; test: in vitro; conditions: human, CC50 Average

Row | Structure (SMILES) | CC50
10 | CC(C)c1ccc(CN(C(=O)c2ccco2)c2ccccc2)cc1 [Compound 19h, N-(4-Isopropylbenzyl)-N-phenylfuran-2-carboxamide] | > 30 µM

same assay, conditions: human, CC50 HelaR19 Average

Row | Structure (SMILES) | CC50
11 | CC(C)c1ccc(CN(C(=O)c2ccco2)c2ccccc2)cc1 [Compound 19h, N-(4-Isopropylbenzyl)-N-phenylfuran-2-carboxamide] | 42.7 µM

same assay, conditions: human, Exp 1 CC50

Row | Structure (SMILES) | CC50
12 | CC(C)c1ccc(CN(C(=O)c2ccco2)c2ccccc2)cc1 [Compound 19h, N-(4-Isopropylbenzyl)-N-phenylfuran-2-carboxamide] | > 30 µM

same assay, conditions: human, Exp 1 CC50 HelaR19

Row | Structure (SMILES) | CC50
13 | CC(C)c1ccc(CN(C(=O)c2ccco2)c2ccccc2)cc1 [Compound 19h, N-(4-Isopropylbenzyl)-N-phenylfuran-2-carboxamide] | 44.5 µM

same assay, conditions: human, Exp2 CC50

Row | Structure (SMILES) | CC50
14 | CC(C)c1ccc(CN(C(=O)c2ccco2)c2ccccc2)cc1 [Compound 19h, N-(4-Isopropylbenzyl)-N-phenylfuran-2-carboxamide] | > 30 µM

same assay, conditions: human, Exp 2 CC50 HelaR19

Row | Structure (SMILES) | CC50
15 | CC(C)c1ccc(CN(C(=O)c2ccco2)c2ccccc2)cc1 [Compound 19h, N-(4-Isopropylbenzyl)-N-phenylfuran-2-carboxamide] | 41 µM

system: CV-B3; test: microbe, parasite or virus in culture; format: cell-based, coxsackievirus B3; conditions: not given

Row | Structure (SMILES) | antiviral activity against CV-B3 (in words) | effect of the substitution on antiviral activity against CV-B3 (in words)
16 | CC(C)c1ccc(CN(C(=O)c2ccco2)c2ccccc2)cc1 [Compound 19h, N-(4-Isopropylbenzyl)-N-phenylfuran-2-carboxamide] | showed antiviral activity | decreased the antiviral activity to a larger extent

same assay, conditions: Enterovirus B, CVB3, HeLa

Row | Structure (SMILES) | EC50
17 | CC(C)c1ccc(CN(C(=O)c2ccco2)c2ccccc2)cc1 [Compound 19h, N-(4-Isopropylbenzyl)-N-phenylfuran-2-carboxamide] | 7.62 ± 0.93 µM

same assay, conditions: Enterovirus B, CVB3, HeLa R19, read-out: CV-B3 EC50 Average

Row | Structure (SMILES) | EC50
18 | CC(C)c1ccc(CN(C(=O)c2ccco2)c2ccccc2)cc1 [Compound 19h, N-(4-Isopropylbenzyl)-N-phenylfuran-2-carboxamide] | 7.03 µM

same assay, conditions: Enterovirus B, CVB3, HeLa R19, read-out: CV-B3 Exp 1 EC50

Row | Structure (SMILES) | EC50
19 | CC(C)c1ccc(CN(C(=O)c2ccco2)c2ccccc2)cc1 [Compound 19h, N-(4-Isopropylbenzyl)-N-phenylfuran-2-carboxamide] | 7.95 µM

same assay, conditions: Enterovirus B, CVB3, HeLa R19, read-out: CV-B3 Exp2 EC50

Row | Structure (SMILES) | EC50
20 | CC(C)c1ccc(CN(C(=O)c2ccco2)c2ccccc2)cc1 [Compound 19h, N-(4-Isopropylbenzyl)-N-phenylfuran-2-carboxamide] | 6.11 µM

same assay, conditions: Enterovirus B, CVB3, HeLa R19, read-out: EC50 HelaR19 Average

Row | Structure (SMILES) | EC50
21 | CC(C)c1ccc(CN(C(=O)c2ccco2)c2ccccc2)cc1 [Compound 19h, N-(4-Isopropylbenzyl)-N-phenylfuran-2-carboxamide] | 7.65 µM

same assay, conditions: Enterovirus B, CVB3, HeLa R19, read-out: Exp 1 EC50 HelaR19

Row | Structure (SMILES) | EC50
22 | CC(C)c1ccc(CN(C(=O)c2ccco2)c2ccccc2)cc1 [Compound 19h, N-(4-Isopropylbenzyl)-N-phenylfuran-2-carboxamide] | 7.5 µM

same assay, conditions: Enterovirus B, CVB3, HeLa R19, read-out: Exp 2 EC50 HelaR19

Row | Structure (SMILES) | EC50
23 | CC(C)c1ccc(CN(C(=O)c2ccco2)c2ccccc2)cc1 [Compound 19h, N-(4-Isopropylbenzyl)-N-phenylfuran-2-carboxamide] | 7.8 µM

system: EV-A71; test: microbe, parasite or virus in culture; format: cell-based, enterovirus A71; conditions: Enterovirus A, EVA71, HeLa R19, read-out: EC50 EV-A71

Row | Structure (SMILES) | EC50
24 | CC(C)c1ccc(CN(C(=O)c2ccco2)c2ccccc2)cc1 [Compound 19h, N-(4-Isopropylbenzyl)-N-phenylfuran-2-carboxamide] | 1.89 ± 0.21 µM

same assay, conditions: Enterovirus A, EVA71, HeLa R19, read-out: EC50 Exp1

Row | Structure (SMILES) | EC50
25 | CC(C)c1ccc(CN(C(=O)c2ccco2)c2ccccc2)cc1 [Compound 19h, N-(4-Isopropylbenzyl)-N-phenylfuran-2-carboxamide] | 1.68 µM

same assay, conditions: Enterovirus A, EVA71, HeLa R19, read-out: EC50 Exp2

Row | Structure (SMILES) | EC50
26 | CC(C)c1ccc(CN(C(=O)c2ccco2)c2ccccc2)cc1 [Compound 19h, N-(4-Isopropylbenzyl)-N-phenylfuran-2-carboxamide] | 2.1 µM

system: not listed separately; test: in vitro; conditions: human, CC50 Hap1 Average

Row | Structure (SMILES) | CC50
27 | CC(C)c1ccc(CN(C(=O)c2ccco2)c2ccccc2)cc1 [Compound 19h, N-(4-Isopropylbenzyl)-N-phenylfuran-2-carboxamide] | 48.7 µM

same assay, conditions: human, Exp 1 CC50 Hap1

Row | Structure (SMILES) | CC50
28 | CC(C)c1ccc(CN(C(=O)c2ccco2)c2ccccc2)cc1 [Compound 19h, N-(4-Isopropylbenzyl)-N-phenylfuran-2-carboxamide] | 48.4 µM

same assay, conditions: human, Exp 2 CC50 Hap1

Row | Structure (SMILES) | CC50
29 | CC(C)c1ccc(CN(C(=O)c2ccco2)c2ccccc2)cc1 [Compound 19h, N-(4-Isopropylbenzyl)-N-phenylfuran-2-carboxamide] | 49.1 µM

system: EV-D68; test: microbe, parasite or virus in culture; format: cell-based, enterovirus D68; conditions: Enterovirus D, EVD68, HeLa R19, read-out: EC50 EV-D68

Row | Structure (SMILES) | EC50
30 | CC(C)c1ccc(CN(C(=O)c2ccco2)c2ccccc2)cc1 [Compound 19h, N-(4-Isopropylbenzyl)-N-phenylfuran-2-carboxamide] | > 30 µM

same assay, conditions: Enterovirus D, EVD68, HeLa R19, read-out: EC50 Exp1

Row | Structure (SMILES) | EC50
31 | CC(C)c1ccc(CN(C(=O)c2ccco2)c2ccccc2)cc1 [Compound 19h, N-(4-Isopropylbenzyl)-N-phenylfuran-2-carboxamide] | > 30 µM

same assay, conditions: Enterovirus D, EVD68, HeLa R19, read-out: EC50 Exp2

Row | Structure (SMILES) | EC50
32 | CC(C)c1ccc(CN(C(=O)c2ccco2)c2ccccc2)cc1 [Compound 19h, N-(4-Isopropylbenzyl)-N-phenylfuran-2-carboxamide] | > 30 µM

system: CV-B3; test: microbe, parasite or virus in culture; format: cell-based, coxsackievirus B3; conditions: not given; remark: another data set of the same source

Row | Structure (SMILES) | antiviral activity against CV-B3 in HAP1 cells (in words)
33 | CC(C)c1ccc(CN(C(=O)c2ccco2)c2ccccc2)cc1 [Compound 19h, N-(4-Isopropylbenzyl)-N-phenylfuran-2-carboxamide] | showed antiviral activity

same assay, conditions: Enterovirus B, CVB3, HAP1, read-out: Exp 1 EC50 Hap1

Row | Structure (SMILES) | EC50
34 | CC(C)c1ccc(CN(C(=O)c2ccco2)c2ccccc2)cc1 [Compound 19h, N-(4-Isopropylbenzyl)-N-phenylfuran-2-carboxamide] | 4.28 µM

same assay, conditions: Enterovirus B, CVB3, HAP1, read-out: Exp 2 EC50 Hap1

Row | Structure (SMILES) | EC50
35 | CC(C)c1ccc(CN(C(=O)c2ccco2)c2ccccc2)cc1 [Compound 19h, N-(4-Isopropylbenzyl)-N-phenylfuran-2-carboxamide] | 3.98 µM

system: HRV-B14; test: microbe, parasite or virus in culture; format: cell-based, human rhinovirus; conditions: Human rhinovirus sp., HRVB14, HeLa R19, read-out: EC50 Exp1

Row | Structure (SMILES) | EC50
36 | CC(C)c1ccc(CN(C(=O)c2ccco2)c2ccccc2)cc1 [Compound 19h, N-(4-Isopropylbenzyl)-N-phenylfuran-2-carboxamide] | 5.55 µM

same assay, conditions: Human rhinovirus sp., HRVB14, HeLa R19, read-out: EC50 Exp2

Row | Structure (SMILES) | EC50
37 | CC(C)c1ccc(CN(C(=O)c2ccco2)c2ccccc2)cc1 [Compound 19h, N-(4-Isopropylbenzyl)-N-phenylfuran-2-carboxamide] | 3.72 µM

same assay, conditions: Human rhinovirus sp., HRVB14, HeLa R19, read-out: EC50 HRV-B14

Row | Structure (SMILES) | EC50
38 | CC(C)c1ccc(CN(C(=O)c2ccco2)c2ccccc2)cc1 [Compound 19h, N-(4-Isopropylbenzyl)-N-phenylfuran-2-carboxamide] | 4.64 ± 0.92 µM

system: CV-B3; test: microbe, parasite or virus in culture; format: cell-based, coxsackievirus B3; conditions: Enterovirus B, CVB3, BGM

Row | Structure (SMILES) | EC50
39 | CC(C)c1ccc(CN(C(=O)c2ccco2)c2ccccc2)cc1 [Compound 19h, N-(4-Isopropylbenzyl)-N-phenylfuran-2-carboxamide] | > 100 µM
